Read-outs that look alike come from different tables or passages of the source.
What was measured:
[1] = target: Akt/PKB (Homo sapiens, UniProt P31749); test: Kinase specificity panel: Akt/PKB; type: biochemical; conditions: Table 2
[2] = target: T1, PKC (Homo sapiens, UniProt P17252); test: PKC kinase assay (Histone 3 phosphorylation); type: biochemical; conditions: Table 2
T1 construct: 6xHis (C); made in house; host or cells: Sf9 insect cells (baculovirus)
Protocol: PKCα kinase activity may be measured by the incorporation of radio-labeled phosphate in Histone 3, as described. The reaction mixture (total volume 65 μl) consist of 50 mM Tris-HCl, 1 mM Calcium acetate, 3 mM DTT, 0.03 mg/ml Phosphatidylserine, 2.4 μg/ml PMA, 0.04% NP40, 12 mM Mg/Cl, purified PKCα-100 ng, Histone 3, 0.2 mg/ml, 100 μM ATP, 0.2 μCi [γ-^32P]-ATP. The reaction is carried over 15 min at 37° C. in microplate shaker and is stopped by adding 10 μl 75 mM orthophosphoric acid and placing the plate on ice. 50 μl of the reaction mixture is transferred onto P81 filterplate and after washing off the free radioactive phosphate (3 times with 200 μl 75 mM orthophosphoric acid per well) 50 μl of scintillation liquid (Microscint 40) were added to each well and the radioactivity is measured on Scintillation counter (Topcount, HP).

[3] = target: SAPK2a (Homo sapiens, UniProt Q16539); test: Kinase specificity panel: SAPK2a; type: biochemical; conditions: Table 2
[4] = target: CDK1/Cyclin B (Homo sapiens, UniProt P06493); test: CDK1/cyclin B kinase assay (GST-Rb phosphorylation);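 further: Enzyme: His-tagged CDK1/Cyclin B co-expressed in baculovirus-infected Sf9 insect cells, purified via metal-chelate chromatography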
[5] = test system: CaMKII; type: biochemical; conditions: Table 2
[6] = target: ERK2 (Homo sapiens, UniProt P28482); test: Kinase specificity panel: ERK2; type: biochemical; conditions: Table 2
[7] = target: CDK7/cyclin H (Homo sapiens, UniProt P50613); test: CDK7 assay (CTD peptide substrate); type: biochemical; conditions: read-out: Average IC50 CDK7 cyclin H
Protocol: CTD peptide substrate (biotinyl-Ahx-(Tyr-Ser-Pro-Thr-Ser-Pro-Ser)4-NH2; 1-2 mg/mL) and recombinant human CDK7/cyclin H, CDK9/cyclin T1, or CDK9/cyclin K (0.5-2 μg) were incubated for 45 min at 30° C. in the presence of varying amounts of test compound in 20 mM MOPS pH 7.2, 25 mM β-glycerophosphate, 5 mM EGTA, 1 mM DTT, 1 mM sodium vanadate, 15 mM MgCl2, and 100 μM ATP (containing a trace amount of ^32PγATP) in a total volume of 25 μL in a 96-well microtiter plate. The reaction was stopped by placing the plate on ice for 2 min. Avidin (50 μg) was added to each well, and the plate was incubated at room temp for 30 min. The samples were transferred to a 96-well P81 filter plate, and washed (4×200 μL per well) with 75 mM phosphoric acid. Microscint 40 scintillation liquid (50 μL) was added to each well, and the amount of ^32P incorporation for each sample was measured using a Packard Topcount microplate scintillation counter.

[8] = target: CDK4/Cyclin D1 (Homo sapiens, UniProt P11802); test: CDK4/cyclin D1 kinase assay (GST-Rb phosphorylation); type: biochemical; conditions: read-out: Average IC50 CDK4 cyclin D1
[9] = target: T2, CDK2/Cyclin E (Homo sapiens, UniProt P24941); test: CDK2/cyclin E kinase assay (GST-Rb phosphorylation); type: biochemical; conditions: read-out: Average IC50 CDK2 cyclin E1;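 further: enzyme source: His-tagged CDK2/cyclin E complex co-expressed recombinantly in Sf9 insect cells using baculovirus constructs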
T2 construct: His; made in house; host or cells: Sf9 insect cells (baculovirus)

[10] = test system: HIV-1; test: Anti-viral cell-based assays; conditions: result in words
[11] = test system: HIV-1RoJo/PBMC; test: Anti-HIV efficacy in fresh human PBMCs, strain RoJo; type: cell-based; conditions: HIV-1RoJo/PBMC; for IC50: Human immunodeficiency virus 1, read-out: IC50 (concentration inhibiting virus replication by 50%); for IC90: Human immunodeficiency virus 1, read-out: IC90 (concentration inhibiting virus replication by 90%)
Protocol: (§1) Fresh PBMCs, seronegative for HIV and HBV, were isolated from screened donors (Interstate Blood Bank, Inc. Memphis, Tenn.). Cells were pelleted/washed 2-3 times by low speed centrifugation and re-suspension in PBS to remove contaminating platelets. […] Banded PBMCs were gently aspirated from the resulting interface and subsequently washed with PBS by low speed centrifugation. […] The cells were allowed to incubate at 37° C. […] IL-2 is included in the culture medium to maintain the cell division initiated by the PHA mitogenic stimulation. PBMCs were maintained in this with bi-weekly medium changes until used in the assay protocol. Cells were kept in culture for a maximum of two weeks before being deemed too old for use in assays and discarded. Monocytes were depleted from the culture as the result of adherence to the tissue culture flask.
(§2) Tritiated thymidine triphosphate (^3H-TTP, 80 Ci/mmol, NEN) was received in 1:1 dH2O:Ethanol at 1 mCi/mL. Poly rA:oligo dT template:primer (Pharmacia) was prepared as a stock solution, followed by aliquoting and storage at −20° C. The RT reaction buffer was prepared fresh on a daily basis. The final reaction mixture was prepared by combining ^3H-TTP, dH2O, poly rA:oligo dT stock and reaction buffer. This reaction mixture was placed in a round bottom microtiter plate and supernatant containing virus was added and mixed. The plate was incubated at 37° C. for 60 minutes. Following incubation, the reaction volume was spotted onto DE81 filter-mats (Wallac), in a sodium phosphate buffer or 2×SSC (Life Technologies). Next they were washed in distilled water, in 70% ethanol, and then dried. Incorporated radioactivity (counts per minute, CPM) was quantified using standard liquid scintillation techniques.

[12] = Compound cytotoxicity in PBMC assay plates (MTS cell viability); conditions: human, TC50 (concentration decreasing cell viability by 50%)
[13] = target: CDK9/cyclin T1 (Homo sapiens, UniProt P50750); test: CDK9 assay (CTD peptide substrate); type: biochemical; conditions: read-out: Average IC50 CDK9 cyclin T1
Method in brief: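 Recombinant human CDK7/cyclin H or CDK9/cyclin T1 with biotinylated CTD peptide, 45 min at 30 °C, pH 7.2 MOPS buffer, 15 mM MgCl2, 100 μM ATP with trace [γ-32P]ATP. Avidin capture on P81 filters, phosphoric acid washes, 32P incorporation by scintillation counting.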

[14] = target: CDK2/cyclin A (Homo sapiens, UniProt P24941); test: CDK2/cyclin A kinase assay; type: biochemical; conditions: Table 3; read-out: Average IC50 CDK2 cyclin A2;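 further: Read-out is incorporated radioactivity retained on P81 filter plates and quantified by scintillation counting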
Protocol: Reactions were stopped on ice, followed by filtration through p81 filterplates (Whatman Polyfiltronics, Kent, UK). After washing 3 times with 75 mM orthophosphoric acid, plates were dried, scintillant added and incorporated radioactivity measured in a scintillation counter (TopCount, Packard Instruments, Pangboume, Berks, UK).

[15] = test system: HIV-1WeJo/PBMC; test: Anti-HIV efficacy in fresh human PBMCs, strain WeJo; type: cell-based; conditions: HIV-1WeJo/PBMC
Protocol: as §1, §2

SAPK2a, sequence (Q16539 whole entry, species assumed): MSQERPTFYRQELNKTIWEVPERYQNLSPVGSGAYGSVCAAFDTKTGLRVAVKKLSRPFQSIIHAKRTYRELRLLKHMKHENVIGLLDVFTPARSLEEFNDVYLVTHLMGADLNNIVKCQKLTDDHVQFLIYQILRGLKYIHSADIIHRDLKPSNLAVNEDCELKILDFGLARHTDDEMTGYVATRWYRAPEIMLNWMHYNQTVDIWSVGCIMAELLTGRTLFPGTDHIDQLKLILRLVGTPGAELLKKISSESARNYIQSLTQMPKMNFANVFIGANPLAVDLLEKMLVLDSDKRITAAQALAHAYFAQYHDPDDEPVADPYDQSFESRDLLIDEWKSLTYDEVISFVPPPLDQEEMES
CDK4/Cyclin D1, sequence (P11802 whole entry, species assumed): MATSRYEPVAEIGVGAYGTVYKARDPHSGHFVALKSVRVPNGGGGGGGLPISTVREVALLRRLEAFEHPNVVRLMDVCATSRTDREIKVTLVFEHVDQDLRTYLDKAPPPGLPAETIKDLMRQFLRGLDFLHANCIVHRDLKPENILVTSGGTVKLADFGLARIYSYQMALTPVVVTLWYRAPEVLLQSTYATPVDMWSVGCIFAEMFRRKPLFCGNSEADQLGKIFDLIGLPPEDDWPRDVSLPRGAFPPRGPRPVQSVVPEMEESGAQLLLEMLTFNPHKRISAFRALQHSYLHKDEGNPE
CDK4/Cyclin D1, sequence (P24385 whole entry partner, species assumed): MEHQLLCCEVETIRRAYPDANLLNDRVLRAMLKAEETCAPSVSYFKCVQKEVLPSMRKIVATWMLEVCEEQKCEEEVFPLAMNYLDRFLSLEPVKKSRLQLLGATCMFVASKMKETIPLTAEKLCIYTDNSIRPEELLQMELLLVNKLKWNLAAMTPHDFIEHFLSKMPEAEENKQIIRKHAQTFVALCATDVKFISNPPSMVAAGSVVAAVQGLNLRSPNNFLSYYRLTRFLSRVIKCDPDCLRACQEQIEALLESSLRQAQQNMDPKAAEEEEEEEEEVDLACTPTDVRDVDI
ERK2, sequence (P28482 whole entry, species assumed): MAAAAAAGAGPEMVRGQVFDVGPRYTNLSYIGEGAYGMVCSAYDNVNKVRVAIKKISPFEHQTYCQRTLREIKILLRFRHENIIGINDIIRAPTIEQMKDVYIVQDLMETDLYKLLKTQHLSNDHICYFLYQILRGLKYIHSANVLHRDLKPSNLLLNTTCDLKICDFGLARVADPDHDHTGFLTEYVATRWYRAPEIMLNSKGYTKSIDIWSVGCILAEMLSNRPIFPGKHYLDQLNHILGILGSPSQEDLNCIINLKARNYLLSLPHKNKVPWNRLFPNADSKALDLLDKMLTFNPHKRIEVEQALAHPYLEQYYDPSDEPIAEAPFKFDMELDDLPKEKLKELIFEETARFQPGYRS
CDK9/cyclin T1, sequence (P50750 whole entry): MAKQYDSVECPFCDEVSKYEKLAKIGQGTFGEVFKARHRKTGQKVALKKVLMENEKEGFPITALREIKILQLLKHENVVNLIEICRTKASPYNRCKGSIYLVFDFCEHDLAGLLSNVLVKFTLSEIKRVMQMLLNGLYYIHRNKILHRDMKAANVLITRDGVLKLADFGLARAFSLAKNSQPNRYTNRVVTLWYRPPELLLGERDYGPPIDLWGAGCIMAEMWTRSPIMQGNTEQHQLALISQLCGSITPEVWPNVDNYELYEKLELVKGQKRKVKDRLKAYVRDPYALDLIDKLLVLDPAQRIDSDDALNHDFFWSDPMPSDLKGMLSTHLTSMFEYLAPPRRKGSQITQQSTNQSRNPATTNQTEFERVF
CDK9/cyclin T1, sequence (O60563 whole entry partner): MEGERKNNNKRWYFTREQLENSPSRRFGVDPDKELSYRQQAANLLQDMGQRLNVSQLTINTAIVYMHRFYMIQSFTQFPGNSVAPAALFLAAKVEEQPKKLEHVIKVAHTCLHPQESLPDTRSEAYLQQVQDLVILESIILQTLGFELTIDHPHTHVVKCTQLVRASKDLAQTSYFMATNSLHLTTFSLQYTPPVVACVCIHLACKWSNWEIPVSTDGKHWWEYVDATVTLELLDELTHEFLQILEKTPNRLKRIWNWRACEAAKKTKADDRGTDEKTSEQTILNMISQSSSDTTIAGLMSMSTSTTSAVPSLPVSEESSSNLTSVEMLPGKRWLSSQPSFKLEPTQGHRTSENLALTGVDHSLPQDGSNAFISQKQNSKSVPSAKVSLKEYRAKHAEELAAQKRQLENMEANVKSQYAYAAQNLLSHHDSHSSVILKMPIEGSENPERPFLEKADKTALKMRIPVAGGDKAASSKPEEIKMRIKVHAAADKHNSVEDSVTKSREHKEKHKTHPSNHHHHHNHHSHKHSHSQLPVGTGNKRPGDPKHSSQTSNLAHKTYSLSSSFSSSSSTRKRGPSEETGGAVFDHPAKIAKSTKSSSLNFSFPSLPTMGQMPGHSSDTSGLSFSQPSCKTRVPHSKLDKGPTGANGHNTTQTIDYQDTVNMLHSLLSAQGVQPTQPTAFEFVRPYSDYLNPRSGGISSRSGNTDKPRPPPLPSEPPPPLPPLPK
CDK7/cyclin H, sequence (P50613 whole entry): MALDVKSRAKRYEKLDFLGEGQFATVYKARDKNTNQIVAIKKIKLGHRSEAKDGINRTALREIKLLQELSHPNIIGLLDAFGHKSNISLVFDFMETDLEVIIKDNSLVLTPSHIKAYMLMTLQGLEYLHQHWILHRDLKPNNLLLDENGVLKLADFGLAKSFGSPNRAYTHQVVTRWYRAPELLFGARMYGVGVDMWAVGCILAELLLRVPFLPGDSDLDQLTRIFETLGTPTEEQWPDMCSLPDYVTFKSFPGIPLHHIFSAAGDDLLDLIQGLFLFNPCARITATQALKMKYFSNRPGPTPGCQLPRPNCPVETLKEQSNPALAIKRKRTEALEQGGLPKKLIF
CDK7/cyclin H, sequence (P51946 whole entry partner): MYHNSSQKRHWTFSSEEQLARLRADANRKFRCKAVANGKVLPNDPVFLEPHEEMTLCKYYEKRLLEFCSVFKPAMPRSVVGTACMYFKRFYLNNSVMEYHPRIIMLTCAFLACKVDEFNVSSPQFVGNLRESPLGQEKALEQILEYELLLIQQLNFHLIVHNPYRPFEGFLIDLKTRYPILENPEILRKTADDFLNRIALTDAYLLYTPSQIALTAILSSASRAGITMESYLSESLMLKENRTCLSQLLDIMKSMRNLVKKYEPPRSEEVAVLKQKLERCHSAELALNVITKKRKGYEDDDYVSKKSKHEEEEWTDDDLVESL
Akt/PKB, sequence (P31749 whole entry): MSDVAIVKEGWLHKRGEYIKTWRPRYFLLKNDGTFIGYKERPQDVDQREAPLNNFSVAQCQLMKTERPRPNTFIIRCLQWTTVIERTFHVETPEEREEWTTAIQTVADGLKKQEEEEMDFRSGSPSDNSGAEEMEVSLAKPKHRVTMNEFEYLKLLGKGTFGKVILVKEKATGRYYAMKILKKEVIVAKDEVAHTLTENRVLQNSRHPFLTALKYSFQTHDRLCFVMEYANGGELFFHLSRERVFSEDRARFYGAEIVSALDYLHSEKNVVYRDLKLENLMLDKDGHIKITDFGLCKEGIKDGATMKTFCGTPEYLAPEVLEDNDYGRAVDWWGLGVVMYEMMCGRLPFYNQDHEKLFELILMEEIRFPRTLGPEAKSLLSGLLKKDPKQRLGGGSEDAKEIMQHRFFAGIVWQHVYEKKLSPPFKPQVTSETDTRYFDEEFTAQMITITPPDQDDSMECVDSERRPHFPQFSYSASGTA

Row | IC50 [1] | IC50 [2] | IC50 [3] | IC50 [5] | IC50 [6] | IC50 ([8]; Table 2) | IC50 ([9]; Table 2) | SMILES | IC50 [4] | IC50 ([7]; Table 2) | IC50 ([7]; Table 3) | anti-viral effectiveness as demonstrated by cell-based assays [10] | IC50 [11] | IC90 [11] | IC50 ([9]; Table 3) | CC50 at 7 days ([12]; HIV-1RoJo/PBMC) | IC50 ([13]; Table 3) | IC50 [14] | also measured
1 | > 50000 nM | 40000 nM | 40000 nM | > 50000 nM | 55000 nM | > 50000 nM | 6300 nM | Cc1nc(C)c(-c2ccnc(Nc3ccc(F)cc3F)n2)s1 [Compound 9, (2,4-Difluoro-phenyl)-[4-(2,4-dimethyl-thiazol-5-yl)-pyrimidin-2-yl]-amine] | 38000 nM | – | – | – | – | – | – | – | – | – | IC50 ([8]; Table 3): > 50000 nM
2 | > 50000 nM | > 50000 nM | 45000 nM | > 50000 nM | > 50000 nM | 2400 nM | – | COc1ccc(Nc2nccc(-c3sc(C)nc3C)n2)cc1 [Compound 26, [4-(2,4-Dimethyl-thiazol-5-yl)-pyrimidin-2-yl]-(4-methoxy-phenyl)-amine] | 9000 nM | – | – | – | – | – | – | – | – | – | –
3 | – | – | – | – | – | – | – | Cc1nc(C)c(-c2ccnc(Nc3ccc(O)cc3)n2)s1 [Compound 28, 4-[4-(2,4-Dimethyl-thiazol-5-yl)-pyrimidin-2-ylamino]-phenol] | 1800 nM | – | 2400 nM | particularly effective anti-viral agents | 280 nM | 21000 nM | 280 nM | 22000 nM | 460 nM | – | IC50 ([8]; Table 3): 600 nM; TI (therapeutic index: TC50/IC50) [11]: 80
4 | – | – | – | – | – | – | – | CNc1nc(C)c(-c2ccnc(Nc3cccc(O)c3)n2)s1 [Compound 70, 3-[4-(4-Methyl-2-methylamino-thiazol-5-yl)-pyrimidin-2-ylamino]-phenol] | – | – | 3400 nM | particularly effective anti-viral agents | 630 nM | 2600 nM | 270 nM | 2700 nM | 48 nM | – | TI (therapeutic index: TC50/IC50) [11]: 4.3
5 | 53000 nM | 33000 nM | 29000 nM | 7700 nM | 15000 nM | 460 nM | 110 nM | Cc1nc(N)sc1-c1ccnc(Nc2cccc(O)c2)n1 [Compound 116, 3-[4-(2-Amino-4-methyl-thiazol-5-yl)-pyrimidin-2-ylamino]-phenol] | 580 nM | 990 nM | – | – | – | – | – | – | – | 180 nM | IC50 ([13]; Table 2): 130 nM
6 | 70000 nM | > 100000 nM | > 100000 nM | > 100000 nM | > 100000 nM | 1400 nM | 280 nM | Cc1nc(N)sc1-c1ccnc(Nc2ccc(I)c([N+](=O)[O-])c2)n1 [Compound 117, [4-(2-Amino-4-methyl-thiazol-5-yl)-pyrimidin-2-yl]-(4-iodo-3-nitro-phenyl)-amine] | 1700 nM | 360 nM | – | – | – | – | – | – | – | 1700 nM | IC50 ([13]; Table 2): 55 nM
7 | – | – | – | – | – | – | – | COc1ccc(Nc2nccc(-c3sc(C)nc3C)n2)cc1OC [Compound 125, (3,4-Dimethoxy-phenyl)-[4-(2,4-dimethyl-thiazol-5-yl)-pyrimidin-2-yl]-amine] | 250 nM | – | 5900 nM | particularly effective anti-viral agents | 820 nM | 970 nM | 33 nM | 27000 nM | 590 nM | 260 nM | IC50 ([8]; Table 3): 1100 nM; TI (therapeutic index: TC50/IC50) [11]: 33
8 | – | – | – | – | – | – | – | Cc1nc(C)c(-c2ccnc(Nc3ccc(N(C)C)c(Cl)c3)n2)s1 [Compound 128, 2-Chloro-N^4-[4-(2,4-dimethyl-thiazol-5-yl)-pyrimidin-2-yl]-N^1,N^1-dimethyl-benzene-1,4-diamine] | – | – | 6300 nM | particularly effective anti-viral agents | 740 nM | 2700 nM | – | 4300 nM | 450 nM | – | CC50 at 7 days ([12]; HIV-1WeJo/PBMC): > 100000 nM; IC50 ([15]; Human immunodeficiency virus 1, read-out: IC50 (concentration inhibiting virus replication by 50%)): 860 nM; IC90 ([15]; Human immunodeficiency virus 1, read-out: IC90 (concentration inhibiting virus replication by 90%)): 2000 nM

Row | SMILES | IC50 [1] | IC50 [2] | IC50 [3] | IC50 [5] | IC50 [6] | IC50 ([8]; Table 2) | IC50 ([9]; Table 2) | IC50 [4] | IC50 ([7]; Table 2) | IC50 ([7]; Table 3) | anti-viral effectiveness as demonstrated by cell-based assays [10] | IC50 [11] | IC90 [11] | IC50 ([9]; Table 3) | CC50 at 7 days ([12]; HIV-1RoJo/PBMC) | IC50 ([13]; Table 3) | IC50 [14] | also measured
9 | Cc1nc(C)c(-c2ccnc(Nc3cccc([N+](=O)[O-])c3)n2)s1 [Compound 5, [4-(2,4-Dimethyl-thiazol-5-yl)-pyrimidin-2-yl]-(3-nitro-phenyl)-amine] | > 50000 nM | 35000 nM | 40000 nM | > 50000 nM | 40000 nM | – | – | 17000 nM | 13000 nM | – | – | – | – | – | – | – | – | –
10 | Cc1nc(C)c(-c2ccnc(Nc3ccc(C(F)(F)F)cc3)n2)s1 [Compound 15, [4-(2,4-Dimethyl-thiazol-5-yl)-pyrimidin-2-yl]-(4-trifluoromethyl-phenyl)-amine] | > 50000 nM | > 50000 nM | > 50000 nM | > 50000 nM | > 50000 nM | – | – | 34000 nM | > 100000 nM | > 100000 nM | – | – | – | – | – | – | – | –
11 | Cc1nc(C)c(-c2ccnc(Nc3cccc(C#N)c3)n2)s1 [Compound 36, 3-[4-(2,4-Dimethyl-thiazol-5-yl)-pyrimidin-2-ylamino]-benzonitrile] | > 50000 nM | > 50000 nM | > 50000 nM | > 50000 nM | > 50000 nM | 2900 nM | 390 nM | 2500 nM | 1700 nM | – | – | – | – | 390 nM | – | – | 160 nM | IC50 ([13]; Table 2): 1000 nM

Source: patent US20050288307A1, “Anti-viral compounds” (priority 2002, published 2005)
